Results as given in PubChem BioAssay AID602305 (The Scripps Research Institute Molecular Screening Center, 2012).
Activity calls are given as the source filed them. How the calls were made is not given here.

Test system: cell line, cAMP TR-FRET counterscreen, inhibition
Assay: dose response, counter-screen, cell-based (AID 602305)

## CCOP(=O)(CCP(=O)(OCC)OCC)OCC.C[CH2][Sn]([Cl])([Cl])[CH2]C
  IC50: > 64.5 µM (inactive)
